Drawing on US11919918B2, “P2X3 andor P2X2/3 receptor antagonist, pharmaceutical composition comprising same, and use thereof” (BEIJING TIDE PHARMACEUTICAL CO., LTD., priority 2017, dated 2024), this text covers IC50 for 28 compounds.

The target of one test is human P2X3 receptor (Homo sapiens (Human), UniProt P56373). Kind of test: Inhibitory activity on human P2X3 receptor (calcium 6 dye FLIPR assay, agonist α,β-MeATP). Format: cell-based. As to conditions: HEK293-P2X3 stably expressing cell line, FLIPR Tetra. As to the method:
(§1) Biological Assay: Determination of the Inhibitory Activity of the Compounds on Human P2X3 and P2X2/3 Receptors
(§2) Cells were seeded into a poly-D-lysine-coated 384-well cell culture plate (Corning) at a density of 11,000 cells/well/25 μL of cell inoculation medium, and were cultured in a cell incubator overnight. On the day of the test, the calcium 6 dye was diluted to a 2× concentration with a assay buffer, 25 μL of the 2× calcium 6 dye was added to the 384-well cell culture plate, which was incubated at 37° C. for 2 hours, and then placed at room temperature for further use. The test compound and the agonist, α,β-MeATP were diluted to a 7× concentration with the assay buffer, 10 μL of the 7× test compound was added to the 384-well cell culture plate, which was incubated at room temperature for 15 minutes, and 10 μL of the 7× α,β-MeATP was transferred into the 384-well cell culture plate. The data were measured and analyzed using FLIPR Tetra, and the half inhibitory concentration (IC50) of the test compound on P2X3 and P2X2/3 receptors was calculated with the GraphPad Prism four-parameter equation.
(§3) Cell lines: human embryonic kidney cells HEK293-P2X3 and HEK293-P2X2/3 stably expressing cell lines;
(§4) Complete cell culture medium: DMEM High Glucose (Life Technology), which contained 10% fetal bovine serum, 4 mM GlutaMAX, 1% penicillin-streptomycin, and 350 μg/mL G418;
(§5) Cell inoculation medium: DMEM High Glucose (Life Technology), which contained 2% fetal bovine serum, and 4 mM GlutaMAX;
(§6) Cell culture conditions: 37° C., 5% CO2;
(§7) Assay buffer: HBSS (containing calcium and magnesium ions), which contained 20 mM HEPES;
(§8) Detection equipment: FLIPR Tetra (Molecular Devices);

The target of another test is human P2X2/3 receptor (Homo sapiens (Human), UniProt P56373+Q9UBL9). Nature of the test: Inhibitory activity on human P2X2/3 receptor (calcium 6 dye FLIPR assay, agonist α,β-MeATP). Format: cell-based. As to conditions: HEK293-P2X2/3 stably expressing cell line, FLIPR Tetra. The protocol:
as §1, §2, §3, §4, §5, §6, §7, §8

Chain of human P2X2/3 receptor (Q9UBL9 whole entry): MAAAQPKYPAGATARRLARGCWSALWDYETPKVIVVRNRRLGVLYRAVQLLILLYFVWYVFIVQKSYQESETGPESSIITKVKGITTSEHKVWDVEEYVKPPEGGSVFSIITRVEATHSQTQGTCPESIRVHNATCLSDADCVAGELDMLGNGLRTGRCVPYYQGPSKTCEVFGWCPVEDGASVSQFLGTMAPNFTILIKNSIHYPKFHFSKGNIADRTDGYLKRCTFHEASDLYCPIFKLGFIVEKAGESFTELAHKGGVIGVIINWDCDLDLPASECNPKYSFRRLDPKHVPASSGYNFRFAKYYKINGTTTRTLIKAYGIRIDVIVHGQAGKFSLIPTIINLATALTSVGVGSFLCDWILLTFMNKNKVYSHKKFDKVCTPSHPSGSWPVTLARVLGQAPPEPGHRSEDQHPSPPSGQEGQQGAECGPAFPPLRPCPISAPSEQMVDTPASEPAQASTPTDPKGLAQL
Chain of human P2X2/3 receptor (P56373 whole entry): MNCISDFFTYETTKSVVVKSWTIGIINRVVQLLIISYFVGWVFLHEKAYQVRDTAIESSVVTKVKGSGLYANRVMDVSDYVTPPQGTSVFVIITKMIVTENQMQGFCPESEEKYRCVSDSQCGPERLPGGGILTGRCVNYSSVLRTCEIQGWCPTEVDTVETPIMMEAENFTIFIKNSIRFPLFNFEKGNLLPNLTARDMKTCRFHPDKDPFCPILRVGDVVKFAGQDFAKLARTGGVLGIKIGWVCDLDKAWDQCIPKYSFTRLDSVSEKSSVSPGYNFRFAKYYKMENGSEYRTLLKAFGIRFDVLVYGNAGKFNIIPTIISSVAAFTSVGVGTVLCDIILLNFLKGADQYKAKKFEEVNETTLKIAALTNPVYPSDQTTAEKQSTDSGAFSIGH
Chain of human P2X3 receptor (P56373 whole entry): as above

In the case of `CCc1cnc(OC)cc1Oc1cnc(N)nc1N` [Compound C165, 5-((5-ethyl-2-methoxy-pyridin-4-yl)oxy) pyrimidine-2,4-diamine], the IC50 on human P2X3 receptor came to 163 nM; on human P2X2/3 receptor, 338 nM.

With `C=C(C)c1cc(Oc2cnc(N)nc2N)c(C(C)C)cn1` [Compound C44], the IC50 amounted to 116 nM on human P2X3 receptor and 423 nM at human P2X2/3 receptor.

Consider `CCN(C)CCNc1nc(N)ncc1Oc1cc(Br)ncc1C(C)C` [Compound C154, 5-((2-bromo-5-isopropylpyridin-4-yl)oxy)-N^4-(2-(ethyl(methyl)amino)ethyl)pyrimidine-2,4-diamine], for which the IC50 on human P2X3 receptor turned out to be 72 nM; at human P2X2/3 receptor it was 46 nM.

For `C#Cc1cc(Oc2cnc(NCCO)nc2N)c(C(C)C)cn1` [Compound C230, 2-((4-amino-5-((2-ethynyl-5-isopropyl-pyridin-4-yl)oxy)pyrimidin-2-yl)amino) ethanol], the IC50 on human P2X3 receptor stood at 60 nM; at human P2X2/3 receptor, 106 nM.

As for `CSc1cc(Sc2cnc(N)nc2N)c(C(C)C)cn1` [Compound C91, 5-((5-isopropyl2-(methylthio)pyridin-4-yl)thio) pyrimidine-2,4-diamine], the IC50 on human P2X3 receptor is 227 nM; on human P2X2/3 receptor it was 271 nM.

For the compound `C#Cc1cc(Oc2cnc(N)nc2NCC(O)CO)c(C(C)C)cn1` (centres unmarked) [Compound C216, 3-((2-amino-5-((2-ethynyl-5-isopropylpyridin-4-yl)oxy)pyrimidin-4-yl)amino)propane-1,2-diol], the IC50 at human P2X3 receptor was 62 nM; on human P2X2/3 receptor, 65 nM.

Regarding `CC(C)Nc1nc(N)ncc1Oc1cc(Br)ncc1C(C)C` [Compound C174, 5-((2-bromo-5-isopropylpyridin-4-yl)oxy)-N^4-isopropyl-pyrimidine-2,4-diamine], the IC50 on human P2X3 receptor stood at 100 nM; on human P2X2/3 receptor, 145 nM.

On to `C=Cc1cc(Sc2cnc(N)nc2N)c(C(C)C)cn1` [Compound C95, 5-((5-isopropyl-2-vinylpyridine-4-yl)thio)pyrimidine-2,4-diamine], for which the IC50 at human P2X3 receptor worked out at 138 nM; at human P2X2/3 receptor, 163 nM.

Regarding `CC(C)c1cnc(Br)cc1Oc1cnc(N)nc1NC1CCCCC1` [Compound C180, 5-((2-bromo-5-isopropylpyridin-4-yl)oxy)-N^4-cyclohexyl-pyrimidine-2,4-diamine], the half-inhibitory concentration (IC50) was 207 nM at human P2X3 receptor and 220 nM on human P2X2/3 receptor.

As for `C#Cc1cc(Oc2cnc(NC(C)C)nc2N)c(C(C)C)cn1` [Compound C233, 5-((2-ethynyl-5-isopropyl-pyrdin-4-yl)oxy)-N^2-isopropyl-pyrmidine-2,4-diamine], the concentration for half-maximal inhibition (IC50) at human P2X3 receptor came to 72 nM; on human P2X2/3 receptor, 125 nM.

Regarding `CC#Cc1cc(Oc2cnc(N)nc2N)c(C(C)C)cn1` [Compound C134, 5-((5-isopropyl-2-(prop-1-yn-1-yl)pyridin-4-yl)oxy) pyrimidine-2,4-diamine], the IC50 at human P2X3 receptor came to 391 nM; on human P2X2/3 receptor it was 685 nM.

As to `CC(C)c1cnc(N(C)C)cc1Oc1cnc(N)nc1N` [Compound C23, 5-((2-(dimethylamino)-5-isopropylpyridin-4-yl)oxy)pyrimidine-2,4-diamine], the concentration for half-maximal inhibition (IC50) was 365 nM on human P2X3 receptor and 644 nM at human P2X2/3 receptor.

Regarding `C#Cc1cc(Oc2cnc(N)nc2NC(C)C)c(C(C)C)cn1` [Compound C212, 5-((2-ethynyl-5-isopropylpyridin-4-yl)oxy)-N^4-isopropylpyrimidine-2,4-diamine], the IC50 was 81 nM at human P2X3 receptor and 123 nM at human P2X2/3 receptor.

For the compound `CC(C)c1cnc(NCC(F)(F)F)cc1Oc1cnc(N)nc1N` [Compound C152], the IC50 was 211 nM on human P2X3 receptor and 375 nM at human P2X2/3 receptor.

As to `CCNc1nc(N)ncc1Oc1cc(Br)ncc1C(C)C` [Compound C173, 5-((2-bromo-5-isopropylpyridin-4-yl)oxy)-N^4-ethylpyrimidine-2,4-diamine], the IC50 on human P2X3 receptor is 188 nM; at human P2X2/3 receptor, 259 nM.

Take `COc1cc(OC)c(C#Cc2cc(Oc3cnc(N)nc3N)c(C(C)C)cn2)c(OC)c1` [Compound C145, 5-((5-isopropyl-2-((2,4,6-trimethoxyphenyl)ethynyl)pyridin-4-yl)oxy)pyrimidine-2,4-diamine]: the IC50 on human P2X3 receptor was 809 nM; on human P2X2/3 receptor, 623 nM.

Regarding `CCN(C)c1cc(Oc2cnc(N)nc2N)c(C(C)C)cn1` [Compound C61, 5-((2-(ethyl(methyl)amino)-5-isopropylpyridin-4-yl)oxy)pyrimidine-2,4-diamine], the IC50 on human P2X3 receptor stood at 274 nM; on human P2X2/3 receptor, 592 nM.

`CC(C)c1cnc(NC2CC2)cc1Oc1cnc(N)nc1N` [Compound C119, 5-((2-(cyclopropylamino)-5-isopropylpyridin-4-yl)oxy)pyrimidine-2,4-diamine]: the figures for the IC50 on human P2X3 receptor and at human P2X2/3 receptor were 540 nM and 505 nM, respectively.

Regarding `C#Cc1cc(Oc2cnc(N)nc2N)c(C(=C)C)cn1` [Compound C215, 5-((2-ethynyl-5-(prop-1-en-2-yl)pyridin-4-yl)oxy) pyrimidine-2,4-diamine], the IC50 stood at 88.2 nM on human P2X3 receptor and 194 nM at human P2X2/3 receptor.

Turning to `CC(C)CNc1nc(N)ncc1Oc1cc(Br)ncc1C(C)C` [Compound C181, 5-((2-bromo-5-isopropylpyridin-4-yl)oxy)-N^4-isobutyl-pyrimidine-2,4-diamine], the figures for the IC50 on human P2X3 receptor and on human P2X2/3 receptor were 84 nM and 78 nM, respectively.

On to `CC(C)c1cnc(N)cc1Oc1cnc(N)nc1N` [Compound C21, 5-((2-amino-5-isopropylpyridin-4-yl)oxy)pyrimidine-2,4-diamine], for which the results for the IC50 at human P2X3 receptor and at human P2X2/3 receptor were 131 nM and 200 nM, respectively.

With `C=Cc1cnc(OC)cc1Oc1cnc(N)nc1N` [Compound C162, 5-((2-methoxy-5-vinylpyridin-4-yl)oxy) pyrimidine-2,4-diamine], the IC50 worked out at 296 nM on human P2X3 receptor and 429 nM at human P2X2/3 receptor.

For the compound `C#Cc1cc(Oc2cnc(NC(CO)CO)nc2N)c(C(C)C)cn1` [Compound C228, 2-((4-amino-5-((2-ethynyl-5-isopropyl-pyrdin-4-yl)oxy)pyrimidin-2-yl)amino) propane-1,3-diol], the IC50 at human P2X3 receptor came to 119 nM; on human P2X2/3 receptor it was 125 nM.

In the case of `CC(C)c1cnc(Br)cc1Oc1cnc(N)nc1NCCN1CCCC1` [Compound C210, 5-((2-bromo-5-isopropylpyridin-4-yl)oxy)-N^4-(2-(pyrrolidin-1-yl)ethyl) pyrimidine-2,4-diamine], the IC50 on human P2X3 receptor is 269 nM; at human P2X2/3 receptor, 399 nM.

As to `CC(C)c1cnc(CN)cc1Oc1cnc(N)nc1N` [Compound C157, 5-((2-(aminomethyl)-5-isopropylpyridin-4-yl)oxy)pyrimidine-2,4-diamine], the IC50 amounted to 736 nM on human P2X3 receptor and 978 nM at human P2X2/3 receptor.

Turning to `Cc1cc(Sc2cnc(N)nc2N)c(C(C)C)cn1` [Compound C92, 5-((5-isopropyl-2-methylpyridin-4-yl)thio) pyrimidine-2,4-diamine], the IC50 at human P2X3 receptor stood at 109 nM; on human P2X2/3 receptor, 222 nM.

In the case of `C=C(C)c1cnc(NCC)cc1Oc1cnc(N)nc1N` [Compound C214, 5-((2-(ethylamino)-5-(prop-1-en-2-yl)pyridin-4-yl)oxy)pyrimidine-2,4-diamine], the IC50 at human P2X3 receptor turned out to be 44 nM; on human P2X2/3 receptor, 72 nM.

Turning to `CC(C)c1cnc(N(C)C2CC2)cc1Oc1cnc(N)nc1N` [Compound C65, 5-((2-(cyclopropyl (methyl)amino)-5-isopropylpyridin-4-yl)oxy) pyrimidine-2,4-diamine], the IC50 at human P2X3 receptor worked out at 334 nM; on human P2X2/3 receptor it was 506 nM.

As usually defined, the IC50 is the concentration needed to halve the response being measured.
